Results reported in ChEMBL document CHEMBL5715260, “Selectivity Literature for EUbOPEN Chemogenomic Library” (2024).
Values belong to the compound of their own block, whether it stands above or below them. Where a SMILES comes first, the peptide text is derived from it. [ ]: non-standard residue; d: D form. The star is where a group is joined. Benzoyl(4-tBu) = CC(C)(C)c1ccc(C(=O)*)cc1; Lys(Et2) = CCN(CC)CCCC[C@H](N)C(=O)O

Columns and labels:
[1] = molecular target: Bromodomain-containing protein 1 (Homo sapiens) (UniProt O95696); settings: at 1 µM
[2] = molecular target: Bromodomain and PHD finger-containing protein 3 (Homo sapiens) (UniProt Q9ULD4); settings: at 1 µM
Bromodomain and PHD finger-containing protein 3 (Homo sapiens), sequence (Q9ULD4 whole entry): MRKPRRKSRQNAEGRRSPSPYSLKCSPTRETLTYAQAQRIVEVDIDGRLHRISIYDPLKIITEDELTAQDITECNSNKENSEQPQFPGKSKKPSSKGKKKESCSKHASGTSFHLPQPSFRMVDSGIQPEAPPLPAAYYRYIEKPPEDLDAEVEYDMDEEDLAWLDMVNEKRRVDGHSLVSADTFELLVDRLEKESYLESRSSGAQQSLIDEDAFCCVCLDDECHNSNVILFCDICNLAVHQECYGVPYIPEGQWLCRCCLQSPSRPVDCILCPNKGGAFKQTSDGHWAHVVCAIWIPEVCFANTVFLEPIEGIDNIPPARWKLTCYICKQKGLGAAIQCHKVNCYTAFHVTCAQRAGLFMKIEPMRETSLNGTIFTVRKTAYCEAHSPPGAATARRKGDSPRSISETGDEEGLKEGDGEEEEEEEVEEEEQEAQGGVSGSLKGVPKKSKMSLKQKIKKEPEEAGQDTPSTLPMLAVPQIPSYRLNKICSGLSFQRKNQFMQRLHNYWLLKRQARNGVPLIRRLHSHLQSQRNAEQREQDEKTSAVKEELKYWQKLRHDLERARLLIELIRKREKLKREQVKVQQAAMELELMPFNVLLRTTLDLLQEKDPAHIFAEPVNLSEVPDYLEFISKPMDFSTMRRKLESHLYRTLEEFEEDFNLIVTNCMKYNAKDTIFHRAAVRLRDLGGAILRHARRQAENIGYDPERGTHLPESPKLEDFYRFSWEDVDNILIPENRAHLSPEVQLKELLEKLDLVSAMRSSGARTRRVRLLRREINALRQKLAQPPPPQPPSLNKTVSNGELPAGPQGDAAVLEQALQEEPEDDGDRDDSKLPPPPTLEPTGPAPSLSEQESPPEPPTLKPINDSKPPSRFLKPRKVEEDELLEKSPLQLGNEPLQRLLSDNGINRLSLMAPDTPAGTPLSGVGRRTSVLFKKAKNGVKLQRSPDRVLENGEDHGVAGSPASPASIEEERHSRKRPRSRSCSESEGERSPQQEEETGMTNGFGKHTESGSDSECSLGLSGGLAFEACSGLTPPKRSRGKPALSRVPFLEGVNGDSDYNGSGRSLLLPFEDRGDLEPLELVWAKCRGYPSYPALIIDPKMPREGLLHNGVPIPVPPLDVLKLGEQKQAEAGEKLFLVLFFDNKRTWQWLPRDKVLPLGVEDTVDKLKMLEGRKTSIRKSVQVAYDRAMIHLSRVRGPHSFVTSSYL

[3] = molecular target: Nuclear receptor subfamily 2 group E member 1 (Homo sapiens) (UniProt Q9Y466); test: Selectivity interaction (Reporter gene assay) EUB0000082b NR2E1; design: recommended concentration 3 uM; settings: screened at recom. conc., Selectivity number of off-targets 2.0, Selectivity number of targets 5.0, Source Knowledge inhouse
Nuclear receptor subfamily 2 group E member 1 (Homo sapiens), sequence (Q9Y466 whole entry): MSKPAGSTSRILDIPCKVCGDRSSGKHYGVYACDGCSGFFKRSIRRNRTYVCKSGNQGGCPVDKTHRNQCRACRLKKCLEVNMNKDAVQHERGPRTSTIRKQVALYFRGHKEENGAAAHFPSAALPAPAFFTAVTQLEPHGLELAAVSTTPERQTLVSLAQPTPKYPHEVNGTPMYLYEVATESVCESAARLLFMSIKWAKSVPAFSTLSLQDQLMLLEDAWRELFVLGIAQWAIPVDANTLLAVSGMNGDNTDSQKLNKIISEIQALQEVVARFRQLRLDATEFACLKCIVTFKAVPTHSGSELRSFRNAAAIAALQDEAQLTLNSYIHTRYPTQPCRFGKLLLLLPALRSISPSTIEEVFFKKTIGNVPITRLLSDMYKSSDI

[4] = molecular target: Nuclear receptor subfamily 4immunitygroup A member 1 (Homo sapiens) (UniProt P22736); test: Selectivity interaction (Reporter gene assay) EUB0000082b NR4A1; design: recommended concentration 3 uM
[5] = molecular target: Steroidogenic factor 1 (Homo sapiens) (UniProt Q13285); test: Selectivity interaction (Reporter gene assay) EUB0000082b NR5A1; design: recommended concentration 3 uM
Steroidogenic factor 1 (Homo sapiens), sequence (Q13285 whole entry): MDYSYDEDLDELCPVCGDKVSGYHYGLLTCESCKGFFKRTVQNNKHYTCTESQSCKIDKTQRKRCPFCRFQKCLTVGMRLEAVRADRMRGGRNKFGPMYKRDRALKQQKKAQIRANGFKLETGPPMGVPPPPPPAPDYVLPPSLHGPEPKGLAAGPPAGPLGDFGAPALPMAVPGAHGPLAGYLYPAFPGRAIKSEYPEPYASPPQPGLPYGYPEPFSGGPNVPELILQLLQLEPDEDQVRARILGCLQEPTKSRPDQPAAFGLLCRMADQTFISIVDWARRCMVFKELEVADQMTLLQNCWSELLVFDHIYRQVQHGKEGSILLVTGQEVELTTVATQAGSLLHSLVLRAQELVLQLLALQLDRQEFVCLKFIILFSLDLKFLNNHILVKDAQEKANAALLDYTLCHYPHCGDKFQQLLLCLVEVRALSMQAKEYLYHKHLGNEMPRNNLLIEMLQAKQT

[6] = molecular target: T1, Retinoic acid receptor RXR-alpha (Homo sapiens) (UniProt P19793); test: Selectivity interaction (Reporter gene assay) EUB0000082b RXRA; design: recommended concentration 3 uM; settings: reference bexarotene 1 uM, Selectivity number of off-targets 0.0, Selectivity number of targets 1.0, Source Knowledge inhouse
T1 sequence (whole entry): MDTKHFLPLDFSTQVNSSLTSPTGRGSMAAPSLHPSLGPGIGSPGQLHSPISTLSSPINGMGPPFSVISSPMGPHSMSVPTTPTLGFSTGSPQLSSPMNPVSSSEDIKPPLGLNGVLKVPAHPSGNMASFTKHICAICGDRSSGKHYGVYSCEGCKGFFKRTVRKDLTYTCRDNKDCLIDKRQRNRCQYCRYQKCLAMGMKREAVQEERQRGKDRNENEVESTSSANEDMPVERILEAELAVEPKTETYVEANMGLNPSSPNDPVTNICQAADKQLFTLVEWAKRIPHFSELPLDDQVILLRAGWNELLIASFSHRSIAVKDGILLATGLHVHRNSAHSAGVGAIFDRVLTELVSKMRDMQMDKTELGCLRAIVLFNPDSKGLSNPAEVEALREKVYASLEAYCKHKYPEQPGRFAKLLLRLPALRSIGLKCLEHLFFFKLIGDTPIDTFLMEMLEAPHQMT

[7] = molecular target: T2, Hepatocyte nuclear factor 4-alpha (Homo sapiens) (UniProt P41235); test: Selectivity interaction (Reporter gene assay) EUB0000082b HNF4A; design: recommended concentration 3 uM
T2 sequence (whole entry): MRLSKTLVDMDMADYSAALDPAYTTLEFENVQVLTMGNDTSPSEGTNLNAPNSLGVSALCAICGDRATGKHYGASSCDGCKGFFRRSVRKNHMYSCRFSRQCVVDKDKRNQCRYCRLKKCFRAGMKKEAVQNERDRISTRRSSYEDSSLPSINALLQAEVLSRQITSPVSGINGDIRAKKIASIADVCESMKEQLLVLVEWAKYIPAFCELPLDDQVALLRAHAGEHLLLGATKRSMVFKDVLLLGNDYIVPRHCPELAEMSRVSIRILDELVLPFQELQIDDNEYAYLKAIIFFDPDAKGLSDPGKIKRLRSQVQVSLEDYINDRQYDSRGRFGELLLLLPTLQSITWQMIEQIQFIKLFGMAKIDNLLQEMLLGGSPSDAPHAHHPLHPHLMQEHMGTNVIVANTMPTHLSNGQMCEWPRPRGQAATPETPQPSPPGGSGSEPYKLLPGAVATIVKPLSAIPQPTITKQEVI

[8] = molecular target: NR1I2 (nuclear receptor subfamily 1 group I member 2, PXR) (Homo sapiens, UniProt O75469); test: Selectivity interaction (Reporter gene assay) EUB0000082b NR1I2; design: recommended concentration 3 uM; settings: read-out: Fold activation
NR1I2 (nuclear receptor subfamily 1 group I member 2, PXR), sequence (O75469 whole entry): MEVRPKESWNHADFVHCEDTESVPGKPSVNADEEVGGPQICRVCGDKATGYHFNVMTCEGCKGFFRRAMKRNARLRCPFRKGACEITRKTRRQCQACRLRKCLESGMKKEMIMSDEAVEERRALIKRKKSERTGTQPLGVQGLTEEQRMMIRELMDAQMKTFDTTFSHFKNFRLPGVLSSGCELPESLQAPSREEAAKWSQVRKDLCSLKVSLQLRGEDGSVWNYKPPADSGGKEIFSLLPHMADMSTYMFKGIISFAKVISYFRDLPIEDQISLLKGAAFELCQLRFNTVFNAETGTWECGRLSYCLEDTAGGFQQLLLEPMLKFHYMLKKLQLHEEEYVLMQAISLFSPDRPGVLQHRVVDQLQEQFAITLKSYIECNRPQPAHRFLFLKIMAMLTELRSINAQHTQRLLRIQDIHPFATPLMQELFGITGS

[9] = molecular target: T3, Nuclear receptor subfamily 2 group C member 1 (Homo sapiens) (UniProt P13056); test: Selectivity interaction (Reporter gene assay) EUB0000082b NR2C1; design: recommended concentration 3 uM
T3 sequence (whole entry): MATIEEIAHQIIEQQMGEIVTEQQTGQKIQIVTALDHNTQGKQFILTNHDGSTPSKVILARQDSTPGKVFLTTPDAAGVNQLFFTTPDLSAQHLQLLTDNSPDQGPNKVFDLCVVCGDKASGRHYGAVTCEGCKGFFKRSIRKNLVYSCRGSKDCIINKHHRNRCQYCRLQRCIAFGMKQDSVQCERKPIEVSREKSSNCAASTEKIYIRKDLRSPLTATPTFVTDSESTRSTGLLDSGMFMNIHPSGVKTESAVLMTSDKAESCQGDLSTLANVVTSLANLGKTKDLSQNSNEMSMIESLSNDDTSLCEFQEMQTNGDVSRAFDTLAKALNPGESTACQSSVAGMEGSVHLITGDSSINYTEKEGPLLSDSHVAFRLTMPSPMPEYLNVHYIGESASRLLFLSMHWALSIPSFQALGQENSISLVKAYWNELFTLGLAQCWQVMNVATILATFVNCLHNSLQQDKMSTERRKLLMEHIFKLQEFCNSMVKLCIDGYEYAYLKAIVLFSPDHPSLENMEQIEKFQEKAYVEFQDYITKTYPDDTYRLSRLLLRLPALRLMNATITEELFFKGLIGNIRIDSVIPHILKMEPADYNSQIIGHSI

[10] = molecular target: Alpha trans-inducing protein (Human alphaherpesvirus 1) (UniProt A0A5J6DW59); test: Selectivity interaction (Reporter gene assay) EUB0000082b UL48; design: recommended concentration 3 uM
Alpha trans-inducing protein (Human alphaherpesvirus 1), sequence (A0A5J6DW59 as listed by the source): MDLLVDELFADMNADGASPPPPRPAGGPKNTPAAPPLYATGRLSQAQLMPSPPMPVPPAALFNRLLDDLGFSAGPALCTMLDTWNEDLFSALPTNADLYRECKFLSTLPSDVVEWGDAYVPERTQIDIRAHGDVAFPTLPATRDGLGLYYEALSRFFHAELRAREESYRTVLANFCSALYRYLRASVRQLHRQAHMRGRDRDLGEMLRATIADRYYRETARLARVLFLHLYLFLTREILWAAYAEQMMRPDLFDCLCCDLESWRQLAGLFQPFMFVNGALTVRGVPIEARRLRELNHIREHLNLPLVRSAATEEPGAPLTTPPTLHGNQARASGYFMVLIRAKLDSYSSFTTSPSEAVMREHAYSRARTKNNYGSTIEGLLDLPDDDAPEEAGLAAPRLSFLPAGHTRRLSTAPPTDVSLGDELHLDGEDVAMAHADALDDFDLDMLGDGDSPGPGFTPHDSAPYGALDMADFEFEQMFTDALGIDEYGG

[11] = molecular target: Vasopressin V1a receptor (Homo sapiens) (UniProt P37288); test: Selectivity interaction (NIMH PDSP panel) EUB0002346a AVPR1A; design: recommended concentration 1 uM; settings: at 10 µM
Vasopressin V1a receptor (Homo sapiens), sequence (P37288 whole entry, looked up): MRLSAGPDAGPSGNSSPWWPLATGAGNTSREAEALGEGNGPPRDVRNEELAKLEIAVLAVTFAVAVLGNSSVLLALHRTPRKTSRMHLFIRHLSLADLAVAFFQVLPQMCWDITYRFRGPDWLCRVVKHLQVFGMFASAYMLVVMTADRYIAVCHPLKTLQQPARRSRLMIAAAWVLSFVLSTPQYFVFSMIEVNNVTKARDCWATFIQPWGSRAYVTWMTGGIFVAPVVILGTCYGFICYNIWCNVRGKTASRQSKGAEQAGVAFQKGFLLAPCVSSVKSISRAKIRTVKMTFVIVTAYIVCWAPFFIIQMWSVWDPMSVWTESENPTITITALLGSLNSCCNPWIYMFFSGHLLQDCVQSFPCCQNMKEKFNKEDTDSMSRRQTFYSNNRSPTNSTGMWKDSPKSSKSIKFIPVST

[12] = molecular target: T4, Kappa-type opioid receptor (Homo sapiens, UniProt P41145); test: Selectivity interaction (CEREP panel) EUB0002346a OPRK1; design: recommended concentration 1 uM; settings: at 10 µM
T4 sequence (P41145 whole entry): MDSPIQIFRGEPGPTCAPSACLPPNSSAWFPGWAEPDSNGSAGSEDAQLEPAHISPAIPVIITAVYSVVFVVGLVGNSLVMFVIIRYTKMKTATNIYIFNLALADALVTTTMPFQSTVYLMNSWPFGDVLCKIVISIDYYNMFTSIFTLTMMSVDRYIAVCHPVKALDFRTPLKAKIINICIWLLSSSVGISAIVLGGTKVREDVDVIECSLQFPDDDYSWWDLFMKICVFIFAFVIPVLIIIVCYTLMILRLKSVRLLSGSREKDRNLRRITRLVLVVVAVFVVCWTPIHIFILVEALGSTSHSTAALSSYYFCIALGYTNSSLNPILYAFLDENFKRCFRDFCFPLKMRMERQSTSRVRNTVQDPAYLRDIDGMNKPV

Mu-type opioid receptor [13] = molecular target: T5, Mu-type opioid receptor (Homo sapiens, UniProt P35372); test: Selectivity interaction (CEREP panel) EUB0002346a OPRM1; design: recommended concentration 1 uM; settings: at 10 µM
T5 sequence (P35372 whole entry): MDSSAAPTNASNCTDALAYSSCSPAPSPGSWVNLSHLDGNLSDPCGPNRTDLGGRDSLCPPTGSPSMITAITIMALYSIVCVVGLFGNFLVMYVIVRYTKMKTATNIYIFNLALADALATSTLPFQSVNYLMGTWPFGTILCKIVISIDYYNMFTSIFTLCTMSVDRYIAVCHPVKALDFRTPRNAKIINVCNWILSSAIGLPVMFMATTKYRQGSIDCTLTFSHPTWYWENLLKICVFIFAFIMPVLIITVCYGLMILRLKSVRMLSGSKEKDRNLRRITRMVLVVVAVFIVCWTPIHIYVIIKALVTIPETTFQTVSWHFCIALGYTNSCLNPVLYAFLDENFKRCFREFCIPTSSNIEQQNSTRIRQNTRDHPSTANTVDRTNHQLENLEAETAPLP

[14] = molecular target: Delta-type opioid receptor (Homo sapiens, UniProt P41143); test: Selectivity interaction (NIMH PDSP panel) EUB0002346a OPRD1; design: recommended concentration 1 uM; settings: at 10 µM
[15] = molecular target: Substance-K receptor (Homo sapiens) (UniProt P21452); test: Selectivity interaction (NIMH PDSP panel) EUB0002346a TACR2; design: recommended concentration 1 uM; settings: at 10 µM
Substance-K receptor (Homo sapiens), sequence (P21452 whole entry): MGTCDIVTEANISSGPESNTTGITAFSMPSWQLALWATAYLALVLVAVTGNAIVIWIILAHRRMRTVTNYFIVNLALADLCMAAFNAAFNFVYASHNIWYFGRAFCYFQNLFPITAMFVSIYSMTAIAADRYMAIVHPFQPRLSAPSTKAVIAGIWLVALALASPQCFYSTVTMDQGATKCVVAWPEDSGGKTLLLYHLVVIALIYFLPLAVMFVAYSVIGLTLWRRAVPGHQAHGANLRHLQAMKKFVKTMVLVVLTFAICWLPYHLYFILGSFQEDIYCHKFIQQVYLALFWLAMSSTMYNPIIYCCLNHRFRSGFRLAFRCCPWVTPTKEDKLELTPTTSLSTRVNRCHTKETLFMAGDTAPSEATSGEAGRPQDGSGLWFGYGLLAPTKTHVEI

[16] = molecular target: Vasopressin V1b receptor (Homo sapiens) (UniProt P47901); test: Selectivity interaction (NIMH PDSP panel) EUB0002346a AVPR1B; design: recommended concentration 1 uM; settings: at 10 µM
Vasopressin V1b receptor (Homo sapiens), sequence (P47901 whole entry): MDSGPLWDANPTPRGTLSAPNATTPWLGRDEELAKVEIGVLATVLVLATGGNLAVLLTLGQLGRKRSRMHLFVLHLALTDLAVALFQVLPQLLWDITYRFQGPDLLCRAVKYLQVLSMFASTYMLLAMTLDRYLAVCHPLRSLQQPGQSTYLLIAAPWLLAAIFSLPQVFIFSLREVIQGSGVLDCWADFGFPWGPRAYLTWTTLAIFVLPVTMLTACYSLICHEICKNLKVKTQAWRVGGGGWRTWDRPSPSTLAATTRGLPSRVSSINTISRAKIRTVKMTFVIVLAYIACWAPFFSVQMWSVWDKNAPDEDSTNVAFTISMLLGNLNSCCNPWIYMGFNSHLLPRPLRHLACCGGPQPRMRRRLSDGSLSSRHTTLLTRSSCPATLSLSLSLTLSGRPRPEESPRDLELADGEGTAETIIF

[17] = molecular target: Substance-P receptor (Homo sapiens) (UniProt P25103); test: Selectivity interaction (NIMH PDSP panel) EUB0002346a TACR1; design: recommended concentration 1 uM; settings: at 10 µM
[18] = molecular target: Vasopressin V2 receptor (Homo sapiens) (UniProt P30518); test: Selectivity interaction (NIMH PDSP panel) EUB0002346a AVPR2; design: recommended concentration 1 uM; settings: at 10 µM
[19] = molecular target: Substance-K receptor (Homo sapiens) (UniProt P21452); test: Selectivity interaction (CEREP panel) EUB0002346a TACR2; design: recommended concentration 1 uM; settings: at 10 µM
Mu-type opioid receptor [20] = molecular target: T5, Mu-type opioid receptor; test: Selectivity interaction (NIMH PDSP panel) EUB0002346a OPRM1; design: recommended concentration 1 uM; settings: at 10 µM
[21] = molecular target: T4, Kappa-type opioid receptor; test: Selectivity interaction (NIMH PDSP panel) EUB0002346a OPRK1; design: recommended concentration 1 uM; settings: at 10 µM
[22] = molecular target: Vasopressin V1a receptor (Homo sapiens) (UniProt P37288); test: Selectivity interaction (CEREP panel) EUB0002346a AVPR1A; design: recommended concentration 1 uM; settings: at 10 µM
[23] = molecular target: cAMP and cAMP-inhibited cGMP 3',5'-cyclic phosphodiesterase 10A (Homo sapiens) (UniProt Q9Y233); test: Selectivity interaction (Enzymatic assay) EUB0002694a PDE10A; design: recommended concentration 1 uM; settings: at 10 µM
[24] = molecular target: cGMP-specific 3',5'-cyclic phosphodiesterase (Homo sapiens) (UniProt O76074); test: Selectivity interaction (Enzymatic assay) EUB0002694a PDE5A; design: recommended concentration 1 uM; settings: at 10 µM
[25] = molecular target: T6, Bromodomain-containing protein 9 (Homo sapiens, UniProt Q9H8M2); test: (§1) Selectivity interaction (Bromodomain panel) EUB0000233b BRD9; design: recommended concentration 1 uM
T6 sequence (Q9H8M2 whole entry): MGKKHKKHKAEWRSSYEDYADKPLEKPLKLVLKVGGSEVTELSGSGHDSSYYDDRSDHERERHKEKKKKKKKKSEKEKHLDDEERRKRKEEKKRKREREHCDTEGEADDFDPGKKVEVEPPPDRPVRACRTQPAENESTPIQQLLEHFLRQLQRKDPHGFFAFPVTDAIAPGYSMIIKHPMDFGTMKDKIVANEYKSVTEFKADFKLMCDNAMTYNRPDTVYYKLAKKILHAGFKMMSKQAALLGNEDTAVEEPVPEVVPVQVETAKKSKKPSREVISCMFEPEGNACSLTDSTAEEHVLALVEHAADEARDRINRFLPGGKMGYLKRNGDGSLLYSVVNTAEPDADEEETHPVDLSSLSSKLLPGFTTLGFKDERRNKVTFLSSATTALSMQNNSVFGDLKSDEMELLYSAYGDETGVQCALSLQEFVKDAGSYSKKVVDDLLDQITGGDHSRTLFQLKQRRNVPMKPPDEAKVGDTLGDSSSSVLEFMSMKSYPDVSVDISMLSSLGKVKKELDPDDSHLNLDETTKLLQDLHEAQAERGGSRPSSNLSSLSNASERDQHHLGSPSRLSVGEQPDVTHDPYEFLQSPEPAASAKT

[26] = molecular target: T6, Bromodomain-containing protein 9; test: as §1; design: recommended concentration 1 uM; remark: listed apart in the source
[27] = molecular target: T6, Bromodomain-containing protein 9; test: as §1; design: recommended concentration 1 uM; remark: listed apart in the source

Control [1]: 0%
Control [2]: 0%
Structure (SMILES): CCCOc1cc(OCCCCN(C)C)cc(Oc2cc3c(cc2NS(=O)(=O)c2ccc(OC)c(OC)c2)n(C)c(=O)n3C)c1

Fold activation [3]: 1.84
Fold activation [4]: 1.28
Remaining activity [5]: 0.876
Relative activation [6]: 0.523%
Fold activation [7]: 0.867
fold induction [8]: 2.24
Fold activation [9]: 1.63
P-value [10]: 4.11e-06
Structure (SMILES): Fc1ccc(-c2c3cccc(C(F)(F)F)c3nn2Cc2ccc(F)cc2Cl)cc1 [LXR-623]

Structure (SMILES): CCN(CC)CCCC[C@H](NC(=O)[C@H](CC(C)C)NC(=O)[C@H](C)NC(=O)[C@H](Cc1ccccc1)NC(=O)c1ccc(C(C)(C)C)cc1)C(=O)N[C@@H](CO)C(=O)OC ({Benzoyl(4-tBu)}-FAL[Lys(Et2)]S-OMe)
Inhibition of control [11]: > 50%
Inhibition of control [12]: 91%
Inhibition of control (Mu-type opioid receptor [13]): 51%
Inhibition of control [14]: > 50%
Inhibition of control [15]: > 50%
Inhibition of control [16]: > 50%
Inhibition of control [17]: > 50%
Inhibition of control [18]: > 50%
Inhibition of control [19]: 75%
Inhibition of control (Mu-type opioid receptor [20]): > 50%
Inhibition of control [21]: > 50%
Inhibition of control [22]: 85%

inhibition [23]: 82.1%
inhibition [24]: 61.8%
Structure (SMILES): N#Cc1ccc(-c2c3n(c4cccnc24)CCN(C2CC2)C3=O)cc1F

IC50 [25]: 1.4 µM
IC50 [26]: 1.4 µM
IC50 [27]: 1.4 µM
Structure (SMILES): CN(C)CCCOc1ccc(-c2cc(NCCCn3cccn3)nc(S(C)(=O)=O)n2)cc1
